The source of these data is PubChem BioAssay AID651733 (The Scripps Research Institute Molecular Screening Center, 2012).

The structures appear in SMILES notation. Activity calls are given as the source filed them. How the calls were made is not given here.

Sequence of Perilipin-5 (Homo sapiens) + 1-acylglycerol-3-phosphate O-acyltransferase ABHD5 (Homo sapiens) (Q00G26 whole entry, looked up, the tested form may be a part): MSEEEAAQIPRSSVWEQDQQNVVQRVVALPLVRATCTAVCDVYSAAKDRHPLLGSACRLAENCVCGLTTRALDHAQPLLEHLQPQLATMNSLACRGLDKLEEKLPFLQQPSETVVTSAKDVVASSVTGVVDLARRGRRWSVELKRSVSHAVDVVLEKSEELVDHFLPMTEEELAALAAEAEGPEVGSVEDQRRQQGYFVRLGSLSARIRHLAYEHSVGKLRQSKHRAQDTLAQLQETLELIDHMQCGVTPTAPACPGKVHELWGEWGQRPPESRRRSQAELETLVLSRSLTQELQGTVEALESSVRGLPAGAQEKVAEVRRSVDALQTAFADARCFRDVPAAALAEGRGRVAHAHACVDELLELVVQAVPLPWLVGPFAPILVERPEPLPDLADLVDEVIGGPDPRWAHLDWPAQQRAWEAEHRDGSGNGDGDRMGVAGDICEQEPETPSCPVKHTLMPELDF
Sequence of Perilipin-5 (Homo sapiens) + 1-acylglycerol-3-phosphate O-acyltransferase ABHD5 (Homo sapiens) (Q8WTS1 whole entry, looked up, the tested form may be a part): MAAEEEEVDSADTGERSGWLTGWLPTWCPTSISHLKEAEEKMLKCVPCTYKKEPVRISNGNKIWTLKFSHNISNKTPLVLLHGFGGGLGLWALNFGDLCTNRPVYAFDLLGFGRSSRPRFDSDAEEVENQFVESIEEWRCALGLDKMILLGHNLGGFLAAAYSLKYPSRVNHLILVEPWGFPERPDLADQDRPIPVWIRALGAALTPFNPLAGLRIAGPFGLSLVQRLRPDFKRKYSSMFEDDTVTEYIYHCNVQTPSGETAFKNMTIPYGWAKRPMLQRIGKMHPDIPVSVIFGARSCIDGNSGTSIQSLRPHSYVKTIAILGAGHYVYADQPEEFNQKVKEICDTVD

The test addresses Perilipin-5 (Homo sapiens) + 1-acylglycerol-3-phosphate O-acyltransferase ABHD5 (Homo sapiens) (UniProt Q00G26+Q8WTS1). As to the kind of experiment: ABHD5-PLIN5 interaction inhibitors, dose response, cell lysate, luminescence, proteins expressed in HEK293T (AID 651733).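 Further: split Gaussia princeps luciferase complementation between ABHD5 and MLDP fusion proteins.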
The IC50 is the concentration that gives 50% inhibition. In the case of `CCCC(=O)NC(c1cccc([N+](=O)[O-])c1)c1ccc2cccnc2c1O` (configuration not stated), the IC50 entry was “inactive”.
The figure for `CC(C)(C)NC(=O)C(c1ccccc1)n1c(=O)c(-c2ccco2)nc2ccccc21` (configuration not stated) is 3.62 µM.
The figure for `COc1ccc(C(C(=O)Nc2ccc3c(c2)OCCO3)n2c(=O)c(-c3ccco3)nc3ccccc32)cc1` (configuration not stated) is 8.54 µM; for `COc1ccc(NC(=S)N(CCCN2CCCC2)Cc2cccn2Cc2ccc(Cl)cc2)cc1Cl` it is “inactive”.
The same measure for `COc1cc(OC)cc(C(=O)NC(=S)N(Cc2ccccc2)C(C)C)c1`: “inactive”; for `CCOC(=O)/C(=C\c1ccc(Cl)cc1)c1nc2sc(C)c(C)c2c(=O)[nH]1`: 0.862 µM.
Turning to `CCCCCNC(=O)C(c1ccc(C#N)cc1)n1c(=O)c(-c2ccco2)nc2ccccc21` (configuration not stated), the IC50 is 6.63 µM.
With `COc1cc(C)c2sc3ccccc3c(=O)c2c1NCCN(C)C`, the 50% inhibitory concentration (IC50) is 3.94 µM.
With `CC(=O)Oc1ccc(C23c4ccccc4C2(OC(C)=O)c2cc(OC(C)=O)ccc23)cc1` (configuration not stated), the 50% inhibitory concentration (IC50) was 1.33 µM.
The same measure for `O=S(=O)(NC1=NCCCCC1)c1ccc2sc(NS(=O)(=O)c3ccc4ccccc4c3)nc2c1`: “inactive”; for `COc1ccc(C(C(=O)NC(C)(C)C)n2c(=O)c(-c3ccco3)nc3ccccc32)cc1` (configuration not stated): 3.52 µM; for `CN1CCC[C@@H]1CCO[C@](C)(c1ccccc1)c1ccc(Cl)cc1`: 6.93 µM.
For `CC(CCc1ccco1)NC(=O)CCc1nnc2ccc(NCc3ccccc3Cl)nn12` (configuration not stated), the IC50 was 3.73 µM.
In the case of `Cc1ccc(S(=O)(=O)N2C[C@@]3(O)Cn4c(=O)ccc(=O)n4C[C@@]3(OC(=O)NCC3CCCCC3)C2)cc1`, the IC50 result is “inactive”.
The same measure for `CC(C)(C)NC(=O)C(c1ccc(C#N)cc1)n1c(=O)c(-c2ccco2)nc2ccccc21` (configuration not stated): 2.52 µM.
The figure for `COc1ccc(/C=C\C(=O)CC(O)(c2ccccc2)C(F)(F)F)cc1` (configuration not stated) is 1.97 µM.
Regarding `COCCN(CCOC)c1nc(N)c2c(N)nc3c(c2c1C#N)CC(=O)N3Cc1ccc(Cl)cc1`, the IC50 entry is “inactive”.
Consider `CCN(CC)CCN(CC(=O)Nc1c(C)cc(C)cc1C)C(=O)c1ccccc1`, for which the IC50 is 3.93 µM.
The same measure for `O=C1NC(=S)NC(=O)C12C(c1ccccc1)NC(=S)NC2c1ccccc1` (configuration not stated): 3.88 µM; for `C#CCN(C[C@@H]1[C@@H](OC(=O)NCC2CCCCC2)[C@@H](OC(=O)NCC2CCCCC2)Cn2c(=O)ccc(=O)n21)S(=O)(=O)c1ccc(C)cc1`: 4.5 µM; for `NC(=O)CCN1CCN(CCOC2Cc3cc(Cl)ccc3Sc3ccccc32)CC1` (configuration not stated): “inactive”.
With `O=C(C[n+]1cccc(CNC(=O)c2ccc(OC(F)F)cc2)c1)Nc1cccc(C(F)(F)F)c1`, the IC50 result is “inactive”.
The entry for `COc1cccc2sc(N(CCCN(C)C)C(=O)COc3ccc(Cl)cc3)nc12` is “inactive”.
Take `CC1=CC(C)(C)Nc2ccc(OC(=O)CN3C(=O)c4cccc5cccc(c45)C3=O)cc21`: the IC50 entry was “inactive”.
For the compound `CCc1nnc(NC(=O)c2nc(S(=O)(=O)Cc3cccc(C)c3)ncc2Cl)s1`, the IC50 is 4.49 µM.
The figure for `Cc1cccc(C)c1NC(=O)C(c1cccc2ccccc12)n1c(=O)c(-c2ccco2)nc2ccccc21` (configuration not stated) is 4.15 µM; for `Cc1cc(C)c(NC(=O)CN2CCN3CCCC3C2)c(C)c1` (configuration not stated) it is 4.81 µM; for `O=c1c(-c2ccco2)nc2ccccc2n1C(CCc1ccccc1)c1nc2ccccc2[nH]1` (configuration not stated) it is 5.14 µM.
The figure for `CCN1CCN(Cc2ccc(NC(=O)c3ccc(C)c(/C=C/c4cnc(Nc5cc(N6CCNCC6)nc(C)n5)cn4)c3)cc2C(F)(F)F)CC1` is 6.01 µM; for `O=C1NC(=O)N(Cc2ccccc2)C(=O)/C1=C\C=C\c1ccco1` it is 2.53 µM; for `FC(F)(F)c1cccc(NC(=S)N(CCCN2CCCC2)Cc2cccn2Cc2ccc(Cl)cc2)c1` it is > 13.3 µM (inactive).
Regarding `Cc1ccc(CS(=O)(=O)c2ncc(Cl)c(C(=O)Nc3nnc(C(C)C)s3)n2)cc1`, the IC50 was 2.88 µM.
The figure for `Cc1nnc(NC(=O)c2nc(S(=O)(=O)Cc3ccccc3C)ncc2Cl)s1` is 5.92 µM.
The figure for `Cc1cccc(C)c1NC(=O)C(c1ccnc2ccccc12)n1c(=O)c(-c2ccco2)nc2ccccc21` (configuration not stated) is 6.13 µM.
Take `CCCCOC(=O)Nc1cc(C(=O)OC)ccc1C(=O)OC`: the IC50 is 4.5 µM.
The figure for `C#CCN(C[C@@H]1[C@@H](OC(=O)NCc2ccc(OC)c(OC)c2)[C@@H](OC(=O)NCc2ccc(OC)c(OC)c2)Cn2c(=O)ccc(=O)n21)S(=O)(=O)c1ccc(C)cc1` is 5.74 µM.
The same measure for `CC1=CC2C(C(O)CC3(C)C2CC(C)C32OCOC23COCO3)C2(C)C/C(=C\O)C(=O)C=C12` (configuration not stated): 3.6 µM; for `O=C1CC(c2ccc(Cl)cc2)Oc2ccc(Cl)cc21` (configuration not stated): 3.18 µM; for `Cc1cccc(C)c1NC(=O)C(c1ccncc1)n1c(=O)c(-c2ccco2)nc2ccccc21` (configuration not stated): “inactive”.
The figure for `O=C(/C=C/Sc1ccccc1)c1ccc(Cl)cc1` is 4 µM.
Take `CN(C)CCCNC(=O)c1ccc(-c2nc(-c3ccc(Cl)cc3)cs2)cc1`: the IC50 entry is “inactive”.
The same measure for `CC(O)CC(=O)OC[C@]12CC[C@H]3[C@@](C)(CC[C@H]4C(C)(C)CCC[C@]34C)[C@@H]1CC(C1=CC(=O)OC1O)O2` (some centres not stated): 1.37 µM; for `COc1ccccc1C=CC(=O)C=Cc1ccccc1OC`: 6.63 µM; for `COc1ccccc1/C=C/C(=O)c1ccccc1`: 9.15 µM.
The figure for `COc1ccc(C(C(=O)NC2CCCCC2)n2c(=O)c(-c3ccco3)nc3ccccc32)cc1` (configuration not stated) is 3.87 µM; for `COc1ccc(NC(=O)C(c2cccc3ccccc23)n2c(=O)c(-c3ccco3)nc3ccccc32)cc1` (configuration not stated) it is “inactive”; for `Cc1ccc(SC2=C(Sc3ccc(C)cc3)C(=O)c3ccccc3C2=O)cc1` it is “inactive”.
In the case of `CCCCCNC(=O)C(c1ccccc1F)n1c(=O)c(-c2ccco2)nc2ccccc21` (configuration not stated), the IC50 was 2.39 µM.
The same measure for `O=C(/C(=C/c1ccccc1)n1cncn1)c1ccc(Cl)cc1Cl`: 2.13 µM; for `N#Cc1ccc(C(C(=O)NCc2ccccc2)n2c(=O)c(-c3ccco3)nc3ccccc32)cc1` (configuration not stated): 2.85 µM.
For the compound `Cc1ccc(/C(O)=C2/C(=O)C(=O)OC2c2ccc(Cl)cc2)cc1` (configuration not stated), the IC50 result is “inactive”.
The same measure for `O=c1nc(/C=C/c2ccc(Cl)cc2Cl)cc(C(F)(F)F)[nH]1`: 2.98 µM.
